This passage reports MIC and CC50 results from ChEMBL document CHEMBL1129258, “Synthesis and structure-activity relationships of 2-pyridones: a novel series of potent DNA gyrase inhibitors as antibacterial agents” (J Med Chem, 1996).

Molecules are shown by their SMILES. In brackets after ≈: the same amount, converted by molar mass. A value given as a limit tells only on which side of the number the result lay.

The target in test [1] is T1, DNA gyrase (Escherichia coli) (UniProt P0AES6+P0AES4). Kind of test: In vitro antibacterial activity against gram-negative organism […] ATCC 13048. It is filed as functional. Particulars: Enterobacter aerogenes.
Test [2] has as its target T1, DNA gyrase (Escherichia coli). Nature of the test: In vitro antibacterial against gram-negative organism Escherichia coli JUHL. The format is functional. Particulars: Escherichia coli K-12.
For test [3] the target is unchanged. Nature of the test: In vitro antibacterial activity against gram-negative organism Klebsiella pneumoniae ATCC 8045. It is filed as functional.
The target is the same in test [4]. Nature of the test: In vitro antibacterial activity against gram-negative organism Prov. stuartii CMX-640. Particulars: Providencia stuartii. It is filed as functional.
The nature of test [5]: In vitro antibacterial activity against gram-negative organism Pseudomonas aeruginosa 5007. It is filed as functional.
Test [6] can be described thus: In vitro antibacterial activity against gram-negative organism Pseudomonas aeruginosa DPHD-2862. Conditions: Pseudomonas aeruginosa; read-out: MIC. The format is functional.
The target in test [7] is T2, DNA gyrase (Staphylococcus aureus) (UniProt P0A0K8+P20831). Kind of test: In vitro antibacterial activity against gram-positive organism Staphylococcus aureus 1775. It is filed as functional.
Test [8] deals with T2, DNA gyrase (Staphylococcus aureus). Nature of the test: In vitro antibacterial activity against gram-positive organism Staphylococcus aureus ATCC 6538p. It is filed as functional.
For test [9] the target is unchanged. Nature of the test: In vitro antibacterial activity against gram-positive organism Staphylococcus aureus NCTC-10649M. It is filed as functional.
In test [10] the target is T1, DNA gyrase (Escherichia coli). Nature of the test: In vitro antibacterial activity against gram-positive organism Streptococcus bovis A-5169. The format is functional. Particulars: Streptococcus equinus.
A further test concerns Streptococcus pyogenes. Kind of test: In vitro antibacterial activity against gram-positive organism Streptococcus pyogenes EES61. The format is functional. Conditions: Streptococcus pyogenes; read-out: MIC.
The target of test [11] is T1, DNA gyrase (Escherichia coli). Nature of the test: In vitro antibacterial activity against gram-positive organism Enterococcus faecium ATCC 8043. It is filed as functional.
Test [12] has the same target. Conditions: Escherichia coli K-12.
Description: Concentration which causes 50% of the gyrase (Escherichia coli H560)-mediated maximal DNA cleavage.
Setting [13] is: Pseudomonas aeruginosa, read-out: MIC.

T2 sequence (P0A0K8 2-644 limits assumed): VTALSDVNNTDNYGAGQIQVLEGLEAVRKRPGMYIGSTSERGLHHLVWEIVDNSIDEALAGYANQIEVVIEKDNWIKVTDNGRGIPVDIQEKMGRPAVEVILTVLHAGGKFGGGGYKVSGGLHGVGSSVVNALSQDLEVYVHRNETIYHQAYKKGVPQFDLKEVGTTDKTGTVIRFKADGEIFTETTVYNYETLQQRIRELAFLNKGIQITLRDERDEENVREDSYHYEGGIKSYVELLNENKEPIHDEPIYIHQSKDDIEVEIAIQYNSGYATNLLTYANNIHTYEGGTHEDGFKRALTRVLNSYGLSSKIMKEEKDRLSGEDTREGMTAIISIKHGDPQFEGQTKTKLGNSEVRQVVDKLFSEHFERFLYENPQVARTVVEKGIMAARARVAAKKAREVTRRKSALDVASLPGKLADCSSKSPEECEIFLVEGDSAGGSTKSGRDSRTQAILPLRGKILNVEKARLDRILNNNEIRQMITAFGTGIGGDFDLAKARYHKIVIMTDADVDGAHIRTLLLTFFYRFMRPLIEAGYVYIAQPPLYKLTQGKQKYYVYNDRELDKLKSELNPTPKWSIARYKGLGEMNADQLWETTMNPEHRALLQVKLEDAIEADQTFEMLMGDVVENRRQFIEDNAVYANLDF
T2 sequence (P20831 whole entry partner): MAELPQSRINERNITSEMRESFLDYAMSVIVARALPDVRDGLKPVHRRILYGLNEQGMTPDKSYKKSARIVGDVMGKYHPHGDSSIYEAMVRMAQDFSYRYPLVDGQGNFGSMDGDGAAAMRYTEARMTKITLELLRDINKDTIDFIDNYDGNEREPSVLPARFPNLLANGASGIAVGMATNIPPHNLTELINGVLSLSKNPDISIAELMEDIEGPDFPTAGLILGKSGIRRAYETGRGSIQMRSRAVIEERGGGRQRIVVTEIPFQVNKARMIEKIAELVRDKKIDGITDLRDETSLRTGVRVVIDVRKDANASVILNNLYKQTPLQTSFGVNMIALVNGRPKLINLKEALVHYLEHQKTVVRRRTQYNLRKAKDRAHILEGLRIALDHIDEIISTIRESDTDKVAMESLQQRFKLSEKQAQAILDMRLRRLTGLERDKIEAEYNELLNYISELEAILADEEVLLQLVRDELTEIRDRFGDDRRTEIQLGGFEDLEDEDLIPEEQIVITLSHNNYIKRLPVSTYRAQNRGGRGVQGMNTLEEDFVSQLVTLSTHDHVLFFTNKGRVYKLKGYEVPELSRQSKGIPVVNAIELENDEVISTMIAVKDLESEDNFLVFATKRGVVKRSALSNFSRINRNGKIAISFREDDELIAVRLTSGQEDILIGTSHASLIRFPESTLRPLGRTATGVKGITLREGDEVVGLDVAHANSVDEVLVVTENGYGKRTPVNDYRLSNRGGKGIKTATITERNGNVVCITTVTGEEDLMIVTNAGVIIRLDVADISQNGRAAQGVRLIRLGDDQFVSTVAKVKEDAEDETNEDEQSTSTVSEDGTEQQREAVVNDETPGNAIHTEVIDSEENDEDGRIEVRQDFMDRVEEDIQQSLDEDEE

As to `Cc1c(N(C)CCN)c(F)cn2c(=O)c(C(=O)O)cc(C3CC3)c12`, the MIC in [1] is 1.56 µg/mL (≈ 4.68 µM); in test [2] it was 0.78 µg/mL (≈ 2.34 µM); in [3] it was 0.2 µg/mL (≈ 0.6 µM); in test [4], 25 µg/mL (≈ 75 µM); in test [5] (setting [13]) it was 6.2 µg/mL (≈ 18.6 µM); in test [6], more than 100 µg/mL. For the same molecule, the MIC in [7] was more than 100 µg/mL; in test [8], 1.56 µg/mL (≈ 4.68 µM); in test [9], 1.56 µg/mL (≈ 4.68 µM); in test [10], 12.5 µg/mL (≈ 37.5 µM); in the test on Streptococcus pyogenes, 12.5 µg/mL (≈ 37.5 µM); in test [11], 3.1 µg/mL (≈ 9.3 µM).

As for `O=C(O)c1cc(-c2ccc(F)cc2F)c2nc(N3CCC(O)C3)c(F)cn2c1=O` (stereo unspecified), the MIC was 0.39 µg/mL (≈ 0.962 µM) in [1]; 0.1 µg/mL (≈ 0.247 µM) in test [2]; 0.05 µg/mL (≈ 0.123 µM) in test [3]; 6.2 µg/mL (≈ 15.3 µM) in [4]; 0.78 µg/mL (≈ 1.92 µM) in test [5] (setting [13]); more than 100 µg/mL in test [6]. In addition, the MIC in test [7] is 100 µg/mL (≈ 247 µM); in [8], 0.05 µg/mL (≈ 0.123 µM); in test [9] it was 0.05 µg/mL (≈ 0.123 µM); in test [10], 6.2 µg/mL (≈ 15.3 µM); in the test on Streptococcus pyogenes, 0.78 µg/mL (≈ 1.92 µM); in [11], 0.78 µg/mL (≈ 1.92 µM). Also, the CC50 in test [12] came to 0.5 µg/mL (≈ 1.23 µM).

For the molecule `CN1CCN(c2nc3c(C4CC4)cc(C(=O)O)c(=O)n3cc2F)CC1`, the MIC was 0.39 µg/mL (≈ 1.13 µM) in [1]; 0.2 µg/mL (≈ 0.577 µM) in [2]; 0.1 µg/mL (≈ 0.289 µM) in test [3]; 50 µg/mL (≈ 144 µM) in [4]; 3.1 µg/mL (≈ 8.95 µM) in [5] (setting [13]); more than 100 µg/mL in [6]. Besides, the MIC in test [7] was found to be 100 µg/mL (≈ 289 µM); in test [8], 1.56 µg/mL (≈ 4.5 µM); in test [9] it was 0.78 µg/mL (≈ 2.25 µM); in test [10] it was 50 µg/mL (≈ 144 µM); in the test on Streptococcus pyogenes, 12.5 µg/mL (≈ 36.1 µM); in test [11], 12.5 µg/mL (≈ 36.1 µM). This molecule yielded a CC50 in [12] of 1 µg/mL (≈ 2.89 µM).

Turning to `Cc1c(N2CC(N)C2)c(F)cn2c(=O)c(C(=O)O)cc(C3CC3)c12`, the MIC in [1] turned out to be 0.05 µg/mL (≈ 0.151 µM); in test [2], 0.01 µg/mL (≈ 0.0302 µM); in test [3] it was 0.01 µg/mL (≈ 0.0302 µM); in [4] it was 1.56 µg/mL (≈ 4.71 µM); in [5], 0.2 pug ml-1; in [6] it was 12.5 µg/mL (≈ 37.7 µM). Also, the MIC was found to be 6.2 µg/mL (≈ 18.7 µM) in test [7]; 0.1 µg/mL (≈ 0.302 µM) in test [8]; 0.05 µg/mL (≈ 0.151 µM) in test [9]; 0.78 µg/mL (≈ 2.35 µM) in [10]; 0.39 µg/mL (≈ 1.18 µM) in the test with Streptococcus pyogenes; 0.2 µg/mL (≈ 0.604 µM) in [11]. The CC50 in test [12] stood at 1.5 µg/mL (≈ 4.53 µM).

As to `Cc1c(NCCN)c(F)cn2c(=O)c(C(=O)O)cc(C3CC3)c12`, the MIC in [1] came out at 0.39 µg/mL (≈ 1.22 µM); in test [2], 0.2 µg/mL (≈ 0.626 µM); in test [3] it was 0.2 µg/mL (≈ 0.626 µM); in test [4] it was 6.2 µg/mL (≈ 19.4 µM); in test [5] (setting [13]), 0.78 µg/mL (≈ 2.44 µM); in [6] it was 50 µg/mL (≈ 157 µM). Also, the MIC in [7] was more than 100 µg/mL; in test [8], 0.78 µg/mL (≈ 2.44 µM); in [9], 1.56 µg/mL (≈ 4.89 µM); in test [10], 12.5 µg/mL (≈ 39.1 µM); in the test with Streptococcus pyogenes, 6.2 µg/mL (≈ 19.4 µM); in test [11], 3.1 µg/mL (≈ 9.71 µM). In test [12], this molecule had a CC50 of 0.8 µg/mL (≈ 2.51 µM).

Consider `O=C(O)c1cc(C2CC2)c2nc(N3CCOCC3)c(F)cn2c1=O`, for which the MIC in test [1] is 3.1 µg/mL (≈ 9.3 µM); in test [2] it was 3.1 µg/mL (≈ 9.3 µM); in test [3] it was 0.39 µg/mL (≈ 1.17 µM); in [4] it was more than 100 µg/mL; in [5] (setting [13]) it was 25 µg/mL (≈ 75 µM); in test [7] it was more than 100 µg/mL. In addition, the MIC in test [8] was 6.2 µg/mL (≈ 18.6 µM); in [9], 6.2 µg/mL (≈ 18.6 µM); in test [10], more than 100 µg/mL; with Streptococcus pyogenes, more than 100 µg/mL; in test [11], more than 100 µg/mL. Moreover, in [12], the CC50 was 1.5 µg/mL (≈ 4.5 µM).

Regarding `Cc1c(N2CCC(C)(N)C2)c(F)cn2c(=O)c(C(=O)O)cc(C3CC3)c12` (stereo unspecified), the MIC in test [1] was determined as 0.05 µg/mL (≈ 0.139 µM); in test [2] it was 0.01 µg/mL (≈ 0.0278 µM); in test [3] it was 0.01 µg/mL (≈ 0.0278 µM); in [4], 0.78 µg/mL (≈ 2.17 µM); in [5] (setting [13]), 0.2 µg/mL (≈ 0.556 µM); in test [6], 6.2 µg/mL (≈ 17.3 µM). Moreover, the MIC amounted to 1.56 µg/mL (≈ 4.34 µM) in test [7]; 0.02 µg/mL (≈ 0.0556 µM) in test [8]; 0.05 µg/mL (≈ 0.139 µM) in test [9]; 0.1 µg/mL (≈ 0.278 µM) in [10]; 0.1 µg/mL (≈ 0.278 µM) in the test with Streptococcus pyogenes; 0.1 µg/mL (≈ 0.278 µM) in test [11].

On to `CN1CCN(c2nc3c(-c4ccc(F)cc4F)cc(C(=O)O)c(=O)n3cc2F)CC1`, for which the MIC is 0.78 µg/mL (≈ 1.86 µM) in test [1]; 0.39 µg/mL (≈ 0.932 µM) in test [2]; 0.2 µg/mL (≈ 0.478 µM) in [3]; 25 µg/mL (≈ 59.8 µM) in test [4]; 6.2 µg/mL (≈ 14.8 µM) in test [5] (setting [13]); more than 100 µg/mL in test [6]. For the same molecule, the MIC in [7] is more than 100 µg/mL; in [8] it was 0.2 µg/mL (≈ 0.478 µM); in test [9] it was 0.2 µg/mL (≈ 0.478 µM); in test [10] it was 12.5 µg/mL (≈ 29.9 µM); with Streptococcus pyogenes, 3.1 µg/mL (≈ 7.41 µM); in test [11], 6.2 µg/mL (≈ 14.8 µM).

As for `CCc1c(N2CCC(N)C2)c(F)cn2c(=O)c(C(=O)O)cc(C3CC3)c12` (stereo unspecified), the MIC in [1] is 0.39 µg/mL (≈ 1.09 µM); in test [2], 0.2 µg/mL (≈ 0.556 µM); in [3] it was 0.1 µg/mL (≈ 0.278 µM); in test [4], 3.1 µg/mL (≈ 8.63 µM); in test [5] (setting [13]), 1.56 µg/mL (≈ 4.34 µM); in [6], 50 µg/mL (≈ 139 µM). In addition, the MIC in test [7] was 6.2 µg/mL (≈ 17.3 µM); in [8], 0.1 µg/mL (≈ 0.278 µM); in [9], 0.1 µg/mL (≈ 0.278 µM); in the test on Streptococcus pyogenes it was 0.39 µg/mL (≈ 1.09 µM); in test [11], 0.39 µg/mL (≈ 1.09 µM).
